Test results reported in ChEMBL document CHEMBL1201862, “PubChem BioAssay data set” (2004).
Calls of active or inactive are those of the source.

Tests used:
[1] = target: Intestinal-type alkaline phosphatase (Homo sapiens, UniProt P09923); test: human intestinal alkaline phosphatase activators, dose response, biochemical, luminescence, uHTS hits (AID 463120); format: functional
[2] = target: T1, Corticotropin-releasing factor receptor 2/Corticotropin-releasing factor-binding protein (Homo sapiens, UniProt P24387+Q13324); test: Dose Response confirmation of uHTS hits for small molecule antagonists of the CRF-binding protein and CRF-R2 receptor complex.; format: functional; settings: read-out: IC50_Mean
T1 sequence (Q13324 whole entry): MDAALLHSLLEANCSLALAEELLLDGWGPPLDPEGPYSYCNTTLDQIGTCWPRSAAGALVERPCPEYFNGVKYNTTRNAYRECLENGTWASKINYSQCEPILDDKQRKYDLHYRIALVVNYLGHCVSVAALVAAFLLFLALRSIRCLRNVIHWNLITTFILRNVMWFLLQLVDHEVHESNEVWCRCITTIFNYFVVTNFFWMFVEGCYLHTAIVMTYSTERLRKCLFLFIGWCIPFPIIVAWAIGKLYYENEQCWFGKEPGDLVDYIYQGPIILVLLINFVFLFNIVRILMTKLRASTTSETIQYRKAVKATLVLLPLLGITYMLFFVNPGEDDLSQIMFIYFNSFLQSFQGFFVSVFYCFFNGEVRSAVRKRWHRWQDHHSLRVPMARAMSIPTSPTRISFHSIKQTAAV
T1 sequence (P24387 whole entry): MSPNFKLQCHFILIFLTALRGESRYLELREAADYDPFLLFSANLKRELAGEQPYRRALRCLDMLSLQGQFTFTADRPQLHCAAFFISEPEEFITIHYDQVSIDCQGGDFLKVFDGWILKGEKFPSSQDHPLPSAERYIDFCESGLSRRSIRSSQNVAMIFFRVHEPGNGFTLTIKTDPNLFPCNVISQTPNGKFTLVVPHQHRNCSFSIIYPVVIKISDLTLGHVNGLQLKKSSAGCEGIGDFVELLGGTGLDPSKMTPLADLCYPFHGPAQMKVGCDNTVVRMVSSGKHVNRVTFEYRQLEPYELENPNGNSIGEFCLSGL

[3] = target: T1, Corticotropin-releasing factor receptor 2/Corticotropin-releasing factor-binding protein; test: activators of CRF receptor 2 with binding protein – uHTS hits, confirmation (AID 602473); format: functional; settings: read-out: EC50_Mean
[4] = blockers of CRF-binding protein–CRF-R2 complex – cell-based, uHTS hits, 384-well, dose response (AID 651639); format: functional, Homo sapiens; settings: read-out: IC50_Mean
[5] = target: T2, E3 ubiquitin-protein ligase XIAP (Homo sapiens, UniProt P98170); test: Counter Screen using XIAP-Bir3 for Chemical Antagonists of Bir1/2 domains of IAP-family anti-apoptotic proteins. [Related pubchem assays (depositor defined):AID1018, AID1449, AID1514, AID1638, AID1749, AID1750, AID488957, AID488963]
[6] = target: T2, E3 ubiquitin-protein ligase XIAP; test: small molecules displacing peptide from XIAP – biochemical, IAP family, fluorescence polarization (AID 1018); format: functional
[7] = target: Signal transducer and activator of transcription 3 (Homo sapiens, UniProt P40763); test: STAT3 blockade with qPCR and toxicity readouts – cell-based, STAT1 panel, cytotoxicity, late-stage follow-up, panel member STAT3 Inhibition (AID 2078)
[8] = target: Signal transducer and activator of transcription 1-alpha/beta (Homo sapiens, UniProt P42224); test: STAT3 blockade with qPCR and toxicity readouts – cell-based, STAT1 panel, cytotoxicity, late-stage follow-up, panel member STAT1 Inhibition (AID 2078)
Signal transducer and activator of transcription 1-alpha/beta, sequence (P42224 whole entry): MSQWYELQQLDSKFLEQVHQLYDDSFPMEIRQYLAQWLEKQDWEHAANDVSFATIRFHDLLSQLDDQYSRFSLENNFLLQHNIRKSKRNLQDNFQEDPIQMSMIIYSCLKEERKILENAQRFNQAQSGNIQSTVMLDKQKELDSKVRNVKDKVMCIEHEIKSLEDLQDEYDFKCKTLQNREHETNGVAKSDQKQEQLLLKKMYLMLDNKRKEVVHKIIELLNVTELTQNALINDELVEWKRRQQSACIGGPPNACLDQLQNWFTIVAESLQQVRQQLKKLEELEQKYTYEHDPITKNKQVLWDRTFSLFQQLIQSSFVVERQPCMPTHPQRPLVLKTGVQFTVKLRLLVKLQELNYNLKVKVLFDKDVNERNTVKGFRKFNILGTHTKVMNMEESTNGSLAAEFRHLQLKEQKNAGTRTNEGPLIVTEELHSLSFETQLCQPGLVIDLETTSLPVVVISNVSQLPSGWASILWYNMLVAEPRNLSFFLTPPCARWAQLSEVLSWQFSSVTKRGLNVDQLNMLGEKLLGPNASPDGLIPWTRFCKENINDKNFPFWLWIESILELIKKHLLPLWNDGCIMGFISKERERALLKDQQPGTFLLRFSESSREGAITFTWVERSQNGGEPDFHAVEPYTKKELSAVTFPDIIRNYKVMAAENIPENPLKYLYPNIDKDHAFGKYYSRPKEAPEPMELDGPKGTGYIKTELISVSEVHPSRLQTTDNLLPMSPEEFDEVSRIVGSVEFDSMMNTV

T2 sequence (P98170 whole entry): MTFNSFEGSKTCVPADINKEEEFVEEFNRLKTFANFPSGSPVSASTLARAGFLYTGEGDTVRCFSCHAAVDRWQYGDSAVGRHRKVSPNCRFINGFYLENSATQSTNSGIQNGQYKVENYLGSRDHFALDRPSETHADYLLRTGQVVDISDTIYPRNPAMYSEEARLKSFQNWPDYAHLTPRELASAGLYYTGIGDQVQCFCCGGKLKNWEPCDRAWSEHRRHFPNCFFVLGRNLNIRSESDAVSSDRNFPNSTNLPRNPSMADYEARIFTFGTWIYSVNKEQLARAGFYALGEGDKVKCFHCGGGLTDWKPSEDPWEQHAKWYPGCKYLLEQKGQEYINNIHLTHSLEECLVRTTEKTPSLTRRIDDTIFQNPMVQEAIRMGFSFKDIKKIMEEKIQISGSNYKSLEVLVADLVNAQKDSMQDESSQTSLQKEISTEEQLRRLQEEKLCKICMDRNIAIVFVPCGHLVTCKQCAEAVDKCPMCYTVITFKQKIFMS
Intestinal-type alkaline phosphatase, sequence (P09923 whole entry): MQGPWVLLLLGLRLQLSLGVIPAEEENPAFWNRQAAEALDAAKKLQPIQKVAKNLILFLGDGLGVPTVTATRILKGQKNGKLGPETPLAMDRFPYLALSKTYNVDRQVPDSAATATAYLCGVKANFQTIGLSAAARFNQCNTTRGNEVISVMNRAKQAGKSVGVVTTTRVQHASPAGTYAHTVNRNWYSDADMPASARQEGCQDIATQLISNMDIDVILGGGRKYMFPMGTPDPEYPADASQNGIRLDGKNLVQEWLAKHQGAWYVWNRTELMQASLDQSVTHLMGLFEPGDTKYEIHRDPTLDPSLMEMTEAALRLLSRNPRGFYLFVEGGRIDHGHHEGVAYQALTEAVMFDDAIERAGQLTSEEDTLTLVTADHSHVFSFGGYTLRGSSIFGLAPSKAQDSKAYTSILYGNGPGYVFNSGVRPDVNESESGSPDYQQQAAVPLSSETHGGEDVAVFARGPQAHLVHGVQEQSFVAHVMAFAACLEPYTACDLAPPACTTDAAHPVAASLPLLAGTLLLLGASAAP
Signal transducer and activator of transcription 3, sequence (P40763 whole entry): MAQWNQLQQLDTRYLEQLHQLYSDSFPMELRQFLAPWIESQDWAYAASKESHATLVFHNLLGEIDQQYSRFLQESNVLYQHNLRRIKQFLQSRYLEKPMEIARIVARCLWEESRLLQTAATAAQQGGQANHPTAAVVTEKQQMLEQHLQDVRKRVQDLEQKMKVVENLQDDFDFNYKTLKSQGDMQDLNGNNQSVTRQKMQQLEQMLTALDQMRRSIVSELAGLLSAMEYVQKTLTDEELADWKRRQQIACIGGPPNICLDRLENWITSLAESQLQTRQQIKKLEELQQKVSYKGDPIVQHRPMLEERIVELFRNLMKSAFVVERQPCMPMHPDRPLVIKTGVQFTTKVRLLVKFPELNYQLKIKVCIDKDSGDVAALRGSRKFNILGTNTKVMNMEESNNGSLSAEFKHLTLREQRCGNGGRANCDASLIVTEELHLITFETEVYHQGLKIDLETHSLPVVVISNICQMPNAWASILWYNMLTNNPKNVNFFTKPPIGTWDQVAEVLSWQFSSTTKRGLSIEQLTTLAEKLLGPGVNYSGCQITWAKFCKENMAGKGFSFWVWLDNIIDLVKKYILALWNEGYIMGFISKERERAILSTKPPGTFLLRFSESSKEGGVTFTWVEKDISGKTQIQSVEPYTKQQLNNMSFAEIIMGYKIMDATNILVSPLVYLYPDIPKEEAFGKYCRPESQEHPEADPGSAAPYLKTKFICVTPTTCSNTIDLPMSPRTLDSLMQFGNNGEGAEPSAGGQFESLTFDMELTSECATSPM

O=C(NNc1ncnc2c1cnn2-c1ccc(F)cc1)c1ccco1
EC50 [1]: 7.17 µM (active) | IC50 [2]: < 0.368 µM (active) | EC50 [3]: > 53 µM (inactive) | IC50 [4]: > 20 µM (inactive)

COc1ccc(NC(=O)N2CCC(c3nc(-c4cccs4)no3)CC2)cc1
IC50 [5]: > 100 µM (inactive) | IC50 [6]: > 100 µM (not active)

COc1ccc(CN2CCN(c3ncnc4sc5c(c34)CCCCC5)CC2)cc1
IC50 [7]: > 18.6 µM (inactive) | IC50 [8]: > 55.7 µM (inactive)
